Laboratory results reported in patent publication US11840686B2, “Modulation of prekallikrein (PKK) expression” (Ionis Pharmaceuticals, Inc., priority 2013, dated 2023).
Strand notation (5' to 3'): a small letter for the sugar, then the base; units joined by * are phosphorothioate-linked, units joined directly phosphodiester-linked; [ ] holds rarer units or linkages, { } end groups; capitals alone tell only the bases. e = 2'-O-(2-methoxyethyl) (MOE); k = constrained ethyl (cEt); [5mC] = 5-methylcytosine; d = 2'-deoxy (DNA)

Test system: human PKK mRNA
Assay: Antisense inhibition of human PKK mRNA in HepaRG cells, 1,000 nM, MOE/deoxy/cEt oligonucleotides (Example 3)
Format: cell-based
In short: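 Readout is percent PKK mRNA reduction against untreated controls, by real-time PCR (RTS3454) adjusted for total RNA via RIBOGREEN. Oligonucleotides, phosphorothioate gapmers of 16 nucleosides with cEt, MOE and deoxy sugars, were delivered at 1,000 nM by electroporation to 20,000 HepaRG cells/well for roughly 24 h.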

[1] = HepaRG cells, electroporation with 1,000 nM antisense oligonucleotide, approx. 24 hours, PKK mRNA by RT-PCR (RTS3454), relative to untreated control cells, Table 25 experiment
[2] = Table 30, human PKK mRNA, HepaRG cells, 1,000 nM antisense oligonucleotide
[3] = PKK mRNA, HepaRG cells, 1,000 nM antisense oligonucleotide, Table 31
[4] = HepaRG cells, electroporation with 1,000 nM antisense oligonucleotide, approx. 24 hours, PKK mRNA by RT-PCR (RTS3454), relative to untreated control cells, Table 26 experiment
[5] = HepaRG cells, 1,000 nM antisense oligonucleotide, Table 29
[6] = Table 20, HepaRG cells, electroporation with 1,000 nM antisense oligonucleotide, approximately 24 hours, PKK mRNA by RT-PCR (RTS3454), relative to untreated control cells
[7] = Table 22 experiment, HepaRG cells, electroporation with 1,000 nM antisense oligonucleotide, approx. 24 hours, PKK mRNA by RT-PCR (RTS3454), relative to untreated control cells
[8] = HepaRG cells, electroporation with 1,000 nM antisense oligonucleotide, approximately 24 hours, primer probe set RTS3454, relative to untreated control cells, experiment of Table 23
[9] = HepaRG cells, electroporation with 1,000 nM antisense oligonucleotide, approximately 24 hours, primer probe set RTS3454, relative to untreated control cells, experiment of Table 24
[10] = Table 21 experiment, HepaRG cells, electroporation with 1,000 nM antisense oligonucleotide, approx. 24 hours, PKK mRNA by RT-PCR (RTS3454), relative to untreated control cells
[11] = Table 28, HepaRG cells, 1,000 nM antisense oligonucleotide, human PKK mRNA
[12] = Table 19, HepaRG cells, electroporation with 1,000 nM antisense oligonucleotide, approximately 24 hours, PKK mRNA by RT-PCR (RTS3454), relative to untreated control cells

“548157 (eA*eT*kT*dG*dT*d[5mC]*dA*dG*d[5mC]*d[5mC]*d[5mC]*d[5mC]*dT*kG*kG*eT; antisense) [compound 548157]” was tested, and the “% inhibition” value [1] was 7%.
“548457 (e[5mC]*eT*kA*dT*dA*dA*d[5mC]*dA*dG*dT*dA*dT*d[5mC]*kA*k[5mC]*e[5mC]; antisense) [compound 548457]” was tested, and the “% inhibition” value [2] was 13%.
In the case of “548664 (antisense eG*e[5mC]*kG*dG*dG*dT*dG*dG*dT*d[5mC]*dT*dT*dG*k[5mC]*kA*e[5mC]) [compound 548664]”, the “% inhibition” value [3] is reported as 38%.
For “548276 (antisense e[5mC]*eA*kG*dA*dG*dT*dG*dT*d[5mC]*dA*dT*d[5mC]*dT*kG*k[5mC]*eG) [compound 548276]”, the “% inhibition” value [4] was 49%.
In the case of “548396 (eT*eA*kA*dT*dG*dA*dG*dT*dG*dG*dG*dT*dT*kA*kG*eG; antisense) [compound 548396]”, the “% inhibition” value [2] is reported as 0%.
In the case of “548219 (eG*eA*kA*dA*dT*d[5mC]*d[5mC]*dT*dG*dT*dG*d[5mC]*dA*kT*kA*eG; antisense) [compound 548219]”, the “% inhibition” value [1] is reported as 8%.
In the case of “548651 (antisense eA*eG*kT*d[5mC]*dT*d[5mC]*dT*dT*dT*d[5mC]*d[5mC]*dT*dA*k[5mC]*k[5mC]*e[5mC]) [compound 548651]”, the “% inhibition” value [3] is reported as 61%.
For “548560 (antisense e[5mC]*eA*k[5mC]*dT*dG*d[5mC]*d[5mC]*dT*dA*dG*dA*dA*dA*kG*kG*e[5mC]) [compound 548560]”, the “% inhibition” value [5] was 16%.
With “547906 (eT*eT*kA*d[5mC]*dT*d[5mC]*dA*dG*d[5mC]*dA*d[5mC]*d[5mC]*dT*kT*kT*eA; antisense) [compound 547906]” the “% inhibition” value [6] was 59% and the “% inhibition” value [7] was 70%.
“547931 (eG*eT*kG*dA*dT*dA*dG*dG*dT*dG*d[5mC]*dA*dG*kA*kT*eG; antisense) [compound 547931]” was tested, and the “% inhibition” value [8] was 58%.
For “548403 (eG*eA*kG*dT*dA*d[5mC]*dA*dT*dT*dG*dG*dG*d[5mC]*k[5mC]*k[5mC]*eA; antisense) [compound 548403]”, the “% inhibition” value [2] was 25%.
With “548018 (e[5mC]*e[5mC]*kA*dA*dG*dA*dA*dG*dA*dG*dT*dT*dT*kG*kT*eT; antisense) [compound 548018]” the “% inhibition” value [9] was 22%.
With “547781 (antisense e[5mC]*eA*kA*dT*dT*dG*d[5mC]*dT*dT*d[5mC]*dT*dT*dG*kG*kA*eG) [compound 547781]” the “% inhibition” value [10] was 49%.
For “548431 (antisense eT*eA*k[5mC]*d[5mC]*dT*dA*dT*dA*dA*d[5mC]*dT*d[5mC]*dT*kA*kA*e[5mC]) [compound 548431]”, the “% inhibition” value [2] was 9%.
In the case of “548269 (antisense eA*eG*k[5mC]*dA*d[5mC]*dA*d[5mC]*dA*dA*dT*dT*dA*d[5mC]*kT*kG*eG) [compound 548269]”, the “% inhibition” value [4] is reported as 62%.
With “548471 (eG*e[5mC]*kG*dG*dA*dA*dA*dA*d[5mC]*dT*dG*dG*d[5mC]*k[5mC]*kG*eT; antisense) [compound 548471]” the “% inhibition” value [11] was 17%.
For “547967 (antisense eG*eG*k[5mC]*dA*dG*dG*dG*dT*dT*d[5mC]*dA*dG*dG*kT*kA*eA) [compound 547967]”, the “% inhibition” value [8] was 25%.
In the case of “547901 (e[5mC]*eT*kG*dT*dA*d[5mC]*dT*dT*dT*dA*dA*dT*dA*kG*kG*e[5mC]; antisense) [compound 547901]”, the “% inhibition” value [6] is reported as 77% and the “% inhibition” value [7] is reported as 85%.
With “548628 (antisense eG*eT*kA*dT*dG*dG*d[5mC]*dA*dG*dA*dG*d[5mC]*d[5mC]*k[5mC]*k[5mC]*eT) [compound 548628]” the “% inhibition” value [3] was 9%.
For “548542 (antisense eG*e[5mC]*kG*d[5mC]*d[5mC]*dA*dT*d[5mC]*d[5mC]*dT*dT*d[5mC]*dA*kA*kT*e[5mC]) [compound 548542]”, the “% inhibition” value [5] was 7%.
“548113 (antisense eG*eG*kT*dG*dA*d[5mC]*dT*dG*d[5mC]*dA*dT*d[5mC]*dT*kG*kA*eG) [compound 548113]” was tested, and the “% inhibition” value [12] was 56%.
“548357 (antisense eG*eA*k[5mC]*dG*dA*d[5mC]*dT*dG*d[5mC]*d[5mC]*d[5mC]*dT*dG*kT*kG*e[5mC]) [compound 548357]” was tested, and the “% inhibition” value (Table 27, HepaRG cells, 1,000 nM antisense oligonucleotide, human PKK mRNA) was 69%.
“547783 (antisense e[5mC]*eA*k[5mC]*dA*dA*dT*dT*dG*d[5mC]*dT*dT*d[5mC]*dT*kT*kG*eG) [compound 547783]” was tested, and the “% inhibition” value [10] was 48%.
“548485 (eG*eT*kG*dA*d[5mC]*d[5mC]*d[5mC]*dA*dA*dG*dG*dG*dT*k[5mC]*kG*eA; antisense) [compound 548485]” was tested, and the “% inhibition” value [11] was 17%.
For “548233 (eA*eT*kT*dG*dT*dA*dG*d[5mC]*d[5mC]*dA*dT*dA*d[5mC]*kA*kT*e[5mC]; antisense) [compound 548233]”, the “% inhibition” value [4] was 38%.
“548603 (eG*eA*kG*dA*dT*dT*dG*dG*dT*dG*dG*dT*dG*kG*kG*eT; antisense) [compound 548603]” was tested, and the “% inhibition” value [5] was 35%.
For “548085 (antisense eT*eA*kA*dG*dG*dG*dA*d[5mC]*d[5mC]*dA*d[5mC]*d[5mC]*dT*kG*kA*eA) [compound 548085]”, the “% inhibition” value [12] was 8%.
For “548414 (antisense eT*e[5mC]*kT*dA*dA*d[5mC]*dA*dG*dT*dA*dT*d[5mC]*dA*k[5mC]*kT*eG) [compound 548414]”, the “% inhibition” value [2] was 20%.
In the case of “548490 (antisense eT*e[5mC]*kT*dG*dG*dT*dT*dA*dG*d[5mC]*d[5mC]*dT*d[5mC]*k[5mC]*kG*eA) [compound 548490]”, the “% inhibition” value [11] is reported as 58%.
With “548183 (e[5mC]*eA*kG*dT*d[5mC]*dA*dT*dG*dG*dA*dG*dA*dT*k[5mC]*kT*e[5mC]; antisense) [compound 548183]” the “% inhibition” value [1] was 43%.
“548286 (antisense eG*eG*kG*dA*d[5mC]*dT*dA*d[5mC]*dA*dT*dG*d[5mC]*dA*kA*kT*eA) [compound 548286]” was tested, and the “% inhibition” value [4] was 47%.
In the case of “548432 (antisense eA*e[5mC]*kT*dG*dT*dA*d[5mC]*d[5mC]*dT*dA*dT*dA*dA*k[5mC]*kT*e[5mC]) [compound 548432]”, the “% inhibition” value [2] is reported as 43%.
“548430 (antisense e[5mC]*e[5mC]*kT*dA*dT*dA*dA*d[5mC]*dT*dA*dT*dA*dA*k[5mC]*kA*eG) [compound 548430]” was tested, and the “% inhibition” value [2] was 21%.
For “548049 (eG*e[5mC]*kG*dA*dT*dA*dT*d[5mC]*dA*dT*dG*dA*dT*kT*k[5mC]*e[5mC]; antisense) [compound 548049]”, the “% inhibition” value [9] was 62%.
With “548447 (antisense e[5mC]*eA*k[5mC]*dT*dG*dT*d[5mC]*d[5mC]*dT*dA*dT*dG*dT*k[5mC]*kA*e[5mC]) [compound 548447]” the “% inhibition” value [2] was 59%.
In the case of “548633 (antisense e[5mC]*eA*kA*dG*dG*d[5mC]*dA*dT*dG*dT*dG*dT*dG*k[5mC]*kA*e[5mC]) [compound 548633]”, the “% inhibition” value [3] is reported as 41%.
With “547892 (e[5mC]*eA*kA*dT*dT*dG*dT*dT*d[5mC]*d[5mC]*dG*dG*dT*kA*k[5mC]*eT; antisense) [compound 547892]” the “% inhibition” value [6] was 29% and the “% inhibition” value [7] was 28%.
In the case of “547844 (antisense eG*e[5mC]*kA*d[5mC]*dT*dT*dA*dT*dT*dT*dG*dA*dT*kG*kA*e[5mC]) [compound 547844]”, the “% inhibition” value [6] is reported as 13% and the “% inhibition” value [7] is reported as 76%.
In the case of “548294 (eG*eT*kG*dT*dG*d[5mC]*dA*d[5mC]*dT*dT*dT*d[5mC]*dT*kG*kG*eT; antisense) [compound 548294]”, the “% inhibition” value [4] is reported as 33%.
“548008 (eT*e[5mC]*kT*d[5mC]*dA*dA*dA*dG*dA*dG*dT*dA*dA*k[5mC]*k[5mC]*eA; antisense) [compound 548008]” was tested, and the “% inhibition” value [9] was 71%.
With “548091 (antisense eT*eG*k[5mC]*dA*dA*dA*d[5mC]*dT*dA*dA*dG*dG*dG*kA*k[5mC]*e[5mC]) [compound 548091]” the “% inhibition” value [12] was 62%.
“548021 (e[5mC]*eA*k[5mC]*dT*d[5mC]*dT*d[5mC]*d[5mC]*d[5mC]*d[5mC]*dA*dA*dG*kA*kA*eG; antisense) [compound 548021]” was tested, and the “% inhibition” value [9] was 0%.
“548154 (eG*eT*kG*d[5mC]*dT*dG*dA*dA*dA*dG*d[5mC]*dG*dG*kG*k[5mC]*eT; antisense) [compound 548154]” was tested, and the “% inhibition” value [1] was 7%.
For “548474 (eG*eA*kA*dG*dG*dT*dG*dT*dG*d[5mC]*dT*dG*dT*k[5mC]*kG*e[5mC]; antisense) [compound 548474]”, the “% inhibition” value [11] was 33%.
For “548582 (eT*eA*kG*d[5mC]*dT*d[5mC]*d[5mC]*dA*dT*dG*d[5mC]*dT*dG*kT*kG*eT; antisense) [compound 548582]”, the “% inhibition” value [5] was 59%.
With “547751 (eT*eG*kA*dA*d[5mC]*dG*dG*dT*d[5mC]*dT*dT*d[5mC]*dA*kA*kG*e[5mC]; antisense) [compound 547751]” the “% inhibition” value [10] was 0%.
“547990 (antisense eA*e[5mC]*kT*dG*dA*d[5mC]*dA*dG*d[5mC]*dG*dA*dA*dT*k[5mC]*kA*eT) [compound 547990]” was tested, and the “% inhibition” value [8] was 58%.
With “548489 (antisense eT*eT*k[5mC]*d[5mC]*d[5mC]*d[5mC]*dA*dG*dA*dG*dG*dT*dG*kA*kT*eA) [compound 548489]” the “% inhibition” value [11] was 16%.
